Where only a bound is given, the exact number is not on record here.

Test [1] has as its target T1, indoleamine dioxygenase (IDO) (Mus musculus, UniProt P28776).
T1 construct: mouse intestinal mucosal lysates were used as the source of IDO in a cell-free assay system; from tissue; host or cells: mouse intestinal mucosa (lysate)
Briefly: Cell-free IDO inhibition assay with mouse intestinal mucosal lysates as the source of IDO. Format: biochemical. The text has this:
FIG. 1 presents the comparative potencies of D-, L-, and DL-isomers of 1-methyltryptophan (1-MT) and alpha-methyltryptophan (alpha-MT) for inhibition of indoleamine dioxygenase (IDO). […] In these studies, mouse intestinal mucosal lysates were used as the source of IDO in a cell-free assay system. Thus, α-MLT will produce anti-cancer effects in vivo by two different, but synergistic, mechanisms. It will block the transport function of ATB^0,+ in tumor cells, thus preventing entry of essential amino acids and glutamine, and consequently causing growth arrest and apoptosis.

In a further test the test system is ZR75.1 cells. Briefly: Mouse xenograft, ZR75.1 ER-positive breast cancer cell line. Format: in vivo. The settings on record: in drinking water (2 mg/ml). The protocol:
(§1) Mouse xenograft studies were performed with two ER-positive breast cancer cell lines (ZR75.1 and MCF7) and one ER-negative breast cancer cell line (MB231). […] Plasma concentration of alpha-methyltryptophan in mice after two weeks of administration in drinking water was […] was not detectable in control mice.

The target in test [2] is T2, ATB0,+ (Homo sapiens, UniProt Q9UN76).
T2 sequence (Q9UN76 1-642): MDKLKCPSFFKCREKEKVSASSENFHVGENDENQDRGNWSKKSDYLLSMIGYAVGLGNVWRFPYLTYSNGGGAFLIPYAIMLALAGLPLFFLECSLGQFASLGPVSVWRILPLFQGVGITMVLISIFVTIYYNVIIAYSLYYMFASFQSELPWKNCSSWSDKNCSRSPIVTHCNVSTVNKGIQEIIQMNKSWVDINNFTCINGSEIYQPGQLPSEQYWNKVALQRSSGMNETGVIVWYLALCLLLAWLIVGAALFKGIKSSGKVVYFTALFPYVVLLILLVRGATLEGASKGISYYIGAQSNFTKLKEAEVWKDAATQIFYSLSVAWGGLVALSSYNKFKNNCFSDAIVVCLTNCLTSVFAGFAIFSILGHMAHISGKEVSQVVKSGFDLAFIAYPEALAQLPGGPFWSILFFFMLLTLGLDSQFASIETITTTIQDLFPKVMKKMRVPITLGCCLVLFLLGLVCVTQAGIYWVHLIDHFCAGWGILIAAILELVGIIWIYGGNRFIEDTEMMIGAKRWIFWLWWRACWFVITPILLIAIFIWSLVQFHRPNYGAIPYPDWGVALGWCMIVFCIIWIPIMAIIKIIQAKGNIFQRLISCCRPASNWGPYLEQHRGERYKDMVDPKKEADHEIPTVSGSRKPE
The test can be described thus: Inward currents in ATB0,+-expressing Xenopus oocytes. Format: cell-based. On the set-up: expressed in transfected cells; host or cells: Xenopus oocytes. The text has this: Tryptophan is a substrate for ATB^0,+. […] Inhibition of glycine uptake could occur because α-MT is a transportable substrate for ATB^0,+ thus competing with glycine for the uptake process, or because it blocks the transporter without itself being transported. The Xenopus oocyte expression system can differentiate between these two modes of inhibition because transportable substrates would induce inward currents whereas blockers would not.
Next, the potency of α-MT to block the transporter under conditions that simulate those in vivo was determined (with all naturally occurring amino acids present at physiologic concentrations). ATB^0,+ accepts all proteinogenic amino acids except glutamate and aspartate. Therefore, using the Xenopus oocyte expression system, the transport activity of human ATB^0,+ was monitored in the presence of an amino acid mixture consisting of all proteinogenic amino acids, each at its respective physiologic concentration found in plasma. Inward currents were detected under these conditions in oocytes expressing human ATB^0,+. α-MT blocked the ATB^0,+-mediated inward currents in the presence of these amino acids. The inhibition was dose-dependent; the concentration of the blocker necessary to elicit 50% maximal inhibition was 255±24 μM (Karunakaran et al., 2008, Biochem J; 414: 343-355).
Although α-methyl-DL-tryptophan is a blocker of ATB^0,+, its potency is weak. […] The only commercially available α-methyltryptophan is the DL-form. Thus, an optical resolution method was developed to separate the L-isomer from the DL-form (FIG. 2). With this method, the L- and D-isomers of this compound were purified. The potencies of the two isomers as a blocker of ATB^0,+ was examined in Xenopus oocytes using the amino acid mixture simulating the plasma. The concentration of the L-isomer to elicit 50% maximal inhibition was 18±5 μM. This value is 14 times less than the corresponding value for the DL-form. With the D-isomer, the inhibition never increased beyond 40% even at 1 mM.

Another test concerns MB231 cells. The test can be described thus: Mouse xenograft, MB231 ER-negative breast cancer cell line. Format: in vivo. Conditions: in drinking water (2 mg/ml). The procedure: as §1
Test [3] deals with T2, ATB0,+. The settings on record: cited from earlier work.
The target of test [4] is T2, ATB0,+. On the set-up: expressed in transfected cells; host or cells: Xenopus oocytes. Conditions: tells transportable substrate from blocker; cited from earlier work.
The next test deals with mouse colon cancer cells. The test can be described thus: Mouse model of colon cancer, subcutaneous injection of mouse colon cancer cells. Type of test: in vivo. The protocol: Further, alpha-methyltryptophan was administered in a mouse model of colon cancer. Following subcutaneous injection of mouse colon cancer cells into mice, mice were treated with alpha-methyltryptophan, either in drinking water or by intraperintoneal injection.

In a further test the test system is MCF7 cells. Briefly: Mouse xenograft, MCF7 ER-positive breast cancer cell line. Format: in vivo. The settings on record: in drinking water (2 mg/ml); in the presence of estrogen administration. The protocol:
as §1

A further test addresses T3, IDO in DCs (Mus musculus, UniProt P28776).
T3 construct: endogenous in cells; host or cells: CD11c+ dendritic cells from a CpG 1826-treated C57Bl6 mouse
Briefly: Mixed lymphocyte reaction: suppression of CD8+ T cell proliferation by IDO-positive DCs, [3H]thymidine incorporation. Format: cell-based. The procedure:
This example complements the cell-free in vitro measurements of IDO activity shown in Example 1 with a functional assay involving T cell proliferation. In this assay, CD8^+ T cells from a transgenic mouse (01.1) which carries the T-cell receptor specific for the ovalbumin peptide antigen Ser-Ile-Ile-Asn-Phe-Glu-Lys-Leu (SIINFEKL) were used. CD11c^+ dendritic cells (DCs) were also prepared from a C57B16 mouse that has been given CpG 1826 intravenously to induce IDO in DCs. A mixed lymphocyte reaction was then performed in which the ability of IDO-positive DCs to suppress the proliferation of CD8^+ T cells was monitored using [^3H]thymidine incorporation as the read-out. Thymidine incorporation in these T cells in the absence of DCs was taken as the control. When the T cells were cultured in the presence of IDO-positive DCs (10^5 cells), thymidine incorporation in T cells was suppressed by 63±3%. […] It is important to note that the concentration of α-MLT needed to inhibit IDO in DCs in this cell-based ex-vivo assay system (0.2 μM) is almost two orders of magnitude less than the IC50 observed for the inhibition of IDO in the cell-free assay system (˜20 μM). Based on these findings, it is expected that α-MLT will function as an anti-cancer agent in vivo by acting through two different mechanisms. […]
(In general: Uptake of a labelled nucleoside into DNA is a usual measure of proliferation.)

T1 sequence (P28776 whole entry): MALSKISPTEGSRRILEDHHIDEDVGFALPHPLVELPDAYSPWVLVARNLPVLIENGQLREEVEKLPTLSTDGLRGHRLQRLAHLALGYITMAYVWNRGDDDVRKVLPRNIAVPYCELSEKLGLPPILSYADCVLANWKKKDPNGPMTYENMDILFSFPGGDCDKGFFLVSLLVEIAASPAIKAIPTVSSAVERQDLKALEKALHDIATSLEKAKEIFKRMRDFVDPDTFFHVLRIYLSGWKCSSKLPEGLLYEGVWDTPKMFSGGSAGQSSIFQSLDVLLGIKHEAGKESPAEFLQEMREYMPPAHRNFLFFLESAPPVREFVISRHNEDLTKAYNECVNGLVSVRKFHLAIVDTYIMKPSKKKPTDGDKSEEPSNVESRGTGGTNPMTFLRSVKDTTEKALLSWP
T3 sequence (P28776 whole entry): as above

As to `CC(N)(Cc1c[nH]c2ccccc12)C(=O)O` (racemic) [α-methyl-DL-tryptophan], the “potency as an IDO inhibitor (comparison, FIG. 1)” value in test [1] is given as “significantly greater than that of 1-methyltryptophan”. For the same compound, in the test on ZR75.1 cells, the “growth of ZR75.1 cells in xenograft” value is listed as “reduced growth”. In addition, on ATB0,+ [2], the “potency as a blocker of ATB0,+ (in words)” value is reported as “weak”. Also, the “growth of MB231 cells in xenograft” value in the test on MB231 cells is on record as “did not effect the growth”. Also, the “effect on ATB0,+-mediated glycine uptake” value on ATB0,+ [3] is listed as “inhibited”. For the same compound, at ATB0,+ [4], the “induction of inward currents in ATB0,+-expressing Xenopus oocytes” value was “did not induce inward currents”. The “reduction of tumor growth” value in the test with mouse colon cancer cells (in drinking water) and in the test on mouse colon cancer cells (intraperitoneal injection) was “approximately 50%” throughout. Further, in the test on MCF7 cells, the “growth of MCF7 cells in xenograft” value is “did not effect the growth”.
Broadly, the inhibition is the percentage by which the read-out fell short of the control. In the case of `C[C@@](N)(Cc1c[nH]c2ccccc12)C(=O)O` [D-isomer, α-methyl-D-tryptophan], the inhibition at 1000 µM at ATB0,+ [2] (even at 1 mM, Xenopus oocytes, amino acid mixture simulating the plasma) was no more than 40%.
As to `C[C@](N)(Cc1c[nH]c2ccccc12)C(=O)O` [α-MLT, α-methyl-L-tryptophan], the “potency as an IDO inhibitor (comparison, FIG. 1)” value in test [1] is given as “significantly more potent than the D-isomer”. At ATB0,+ [2], the “potency as a blocker of ATB0,+ (in words)” value is given as “more potent than α-methyl-D-tryptophan”. For the same compound, the “times less than the corresponding value for the DL-form” value on ATB0,+ [2] (50% maximal inhibition concentration, L-isomer vs DL-form) stood at 14 times.
Broadly, the IC50 is the point on the concentration scale where inhibition reaches its midpoint. In the case of α-methyl-L-tryptophan [α-MLT], the IC50 in test [1] (read-out: IC50 observed for the inhibition of IDO in the cell-free assay system) was roughly 20 µM. For the same compound, at IDO in DCs (0.2 μM, IDO-positive DCs (10^5 cells)), the “reversal of suppression of thymidine incorporation in T cells by IDO-positive DCs” value is listed as “completely reversed”. On IDO in DCs (cell-based ex-vivo assay), the “concentration needed to inhibit IDO in DCs in cell-based ex-vivo assay system” value came out at 0.2 µM.

Source of the values: patent US20130142815A1, “ALPHA-METHYL-TRYPTOPHAN AS AN INHIBITOR OF INDOLEAMINE DIOXYGENASE” (Georiga Health Sciences Univ. Research Inst., Inc., priority 2010, published 2013).
